The values below come from patent US8452543B2, “High throughput screening for antimicrobial dosing regimens” (priority 2005, dated 2013).

Values after ≈ are worked out from the molar mass of the structure shown. Like-named read-outs stand apart in the source and are kept apart here.

A word on the MBC: it is the smallest concentration meeting the test's criterion for killing.

For test [1], the system named is P. aeruginosa PA 27853 and resistant isolates MR1, MR2, MR3. The test is described as follows: microbe, parasite or virus in culture. The format is cell-based, Pseudomonas aeruginosa. To be noted: Pseudomonas aeruginosa. As for the experimental part:
Minimum inhibitory concentration (MIC)/minimum bactericidal concentration (MBC) were determined in Ca-MHB using a modified macrobroth dilution method as described by the CLSI (10). The final concentration of bacteria in each macrobroth dilution tube was approximately 5×10^5 cfu/ml of Ca-MHB. Serial twofold dilutions of meropenem were used. […] Samples (50 μl) from clear tubes and the cloudy tube with the highest drug concentration were plated on Mueller-Hinton agar (MHA) plates (Hardy Diagnostics, Santa Maria, Calif.). […] Drug carry-over effect was assessed by visual inspection of the distribution of colonies on media plates. The studies were conducted in duplicate and repeated at least once on a separate day.

For test [2] the test system is unchanged. As to the kind of experiment: microbe, parasite or virus in culture. It is filed as cell-based. Conditions: Pseudomonas aeruginosa, Etest.
Test [3] deals with amikacin resistant A. baumannii isolates. The test is described as follows: Resistance confirmation, repeat susceptibility testing, amikacin. The format is cell-based, Acinetobacter baumannii. Conditions: for cross-resistance: amikacin resistant isolates.
Experimental: The media plates were incubated at 35° C. for up to 24 (total population) and 72 hours (sub-populations with reduced susceptibility), then bacterial density from each sample was enumerated visually. The theoretical lower limit of detection was 400 CFU/ml.
Test [4] has as its system A. baumannii ATCC BAA 747. The test is described as follows: MIC/MBC, modified macrobroth dilution. It is filed as cell-based. Conditions: Acinetobacter baumannii, BAA747; A. baumannii isolate (AB BAA 747). As for the experimental part:
(§1) The final concentration of bacteria in each macrobroth dilution tube was approximately 5×10^5 cfu/ml of Ca-MHB. Serial twofold dilutions of meropenem were used. […] Samples (50 μl) from clear tubes and the cloudy tube with the highest drug concentration were plated on Mueller-Hinton agar (MHA) plates (Hardy Diagnostics, Santa Maria, Calif.). […] Drug carry-over effect was assessed by visual inspection of the distribution of colonies on media plates. The studies were conducted in duplicate and repeated at least once on a separate day.
For orientation: Broth dilution looks for growth in wells or tubes with falling amounts of substance.

The test system of test [5] is A. baumannii ATCC BAA 747. As to the kind of experiment: Time-kill studies and best-fit model, amikacin. It is filed as cell-based, Acinetobacter baumannii.
Test [6] concerns levofloxacin resistant P. aeruginosa isolates. As to the kind of experiment: Susceptibility of levofloxacin resistant isolates, screening panel. The format is cell-based, Pseudomonas aeruginosa.
The test system of test [7] is P. aeruginosa ATCC 27853. As to the kind of experiment: MIC/MBC, modified macrobroth dilution. It is filed as cell-based, Pseudomonas aeruginosa. Conditions: P. aeruginosa ATCC 27853. As to the method: as §1
The subject of test [8] is P. aeruginosa ATCC 27853. The test is described as follows: Time-kill studies and model fit, levofloxacin. It is filed as cell-based, Pseudomonas aeruginosa. Conditions: for EC50: Pseudomonas aeruginosa. As to the method: An overnight culture of the isolate was diluted 30-fold with pre-warmed Ca-MHB and incubated further at 35 C until reaching late log phase growth. The bacterial suspension was diluted with Ca-MHB accordingly based on absorbance at 630 nm; 15 mL of the suspension was transferred to 50 mL sterile conical flasks each containing 1 mL of a drug solution at 16·the target concentration. The final concentration of the bacterial suspension in each flask at baseline was approximately 1×10^8 CFU/mL.
The high inoculum was used to simulate the bacterial load in a severe infection, e.g., nosocomial pneumonia. Furthermore, the high inoculum used would allow resistant sub-population(s) to be likely present at baseline. The experiment was conducted for 24 h in a shaker water bath set at 35° C. Serial samples (baseline, 0.5, 1, 2, 4, 8, 12, and 24 h) were obtained from each flask over 24 h to characterize the effect of various drug exposures on the total bacterial population.
Prior to culturing the bacteria quantitatively, the bacterial samples (0.5 mL) were centrifuged at 10,000 g for 15 min, and reconstituted with sterile normal saline to their original volumes in order to minimize drug carry-over effect. Total bacterial populations were quantified by spiral plating 10 serial dilutions of the samples (50 IL) onto Ca-MHA plates. The media plates were incubated in a humidified incubator (35° C. for 18-24 h, and the bacterial density from each sample was determined by CASBA-4 colony scanner/software (Spiral Biotech, Bethesda, Md.). The reliable limit of detection was 400 CFU/mL. The experiment was repeated once on a separate day.
The mathematical framework described Example 1 is used to predict whether a microbial population will be eradicated or survive under an antimicrobial pressure whose concentration over time follows a clinically realistic (time-periodic) profile. For absence of agent (placebo, C=0 Ig/mL) and by inspection in FIG. 13 it is determined that Nmax=10^9.4 CFU/mL. Using this value for Nmax standard nonlinear least squares (differential evolution of mathematica) is used to get a growth rate constant value Kg=0.22 h^−1.
It is assumed that Kg is the same for all bacterial sub-populations, owing to common basic physiology. For the highest agent concentration used (C=64 Ig/mL) there appears to be complete eradication of the entire microbial population after the third sample in time. Therefore, no experimental points beyond that are considered in the data fit. Further, it is assumed that the maximum kill rate, Kk, occurring at an antibiotic concentration high enough to saturate all bacterial target sites, is the same for all bacteria, namely Kk=Kb. […] The values of the remaining parameters are estimated using standard nonlinear least squares for concentrations C=0.5, . . . , 32 Ig/mL (Table 4).

Setting [9] is: strain MR1 (Placebo exposure, OprD−).
Where [10] appears, read: strain MR2 (Cmin/MIC 0.5, OprD− & Mex+).
[11] abbreviates: strain MR3 (Cmin/MIC 1.7, OprD− & Mex+), read-out: MIC.

For `CC1(C)S[C@@H]2[C@H](NC(=O)C(C(=O)O)c3ccccc3)C(=O)N2[C@H]1C(=O)O` (stereo partly shown) [CAR, carbenicillin], the MIC in test [1] (strain MR2 (Cmin/MIC 0.5, OprD− & Mex+), macrobroth method) stood at 512 µg/mL (≈ 1350 µM); in test [1] (strain MR3 (Cmin/MIC 1.7, OprD− & Mex+), macrobroth method, read-out: MIC) it was 512 µg/mL (≈ 1350 µM); in test [1] (strain PA 27853, macrobroth method), 64 µg/mL (≈ 169 µM).
On to `CC(C)(O/N=C(\C(=O)N[C@@H]1C(=O)N2C(C(=O)[O-])=C(C[n+]3ccccc3)CS[C@H]12)c1csc(N)n1)C(=O)O` [CAZ, ceftazidime], for which the MIC in test [2] (setting [9]) is 1 µg/mL (≈ 1.83 µM); in test [2] (setting [10]) it was 2 µg/mL (≈ 3.66 µM); in test [2] (setting [11]) it was 4 µg/mL (≈ 7.32 µM); in test [2] (strain PA 27853), 1 µg/mL (≈ 1.83 µM).
Turning to `C[C@@H](O)[C@H]1C(=O)N2C(C(=O)O)=C(SCCN=CN)C[C@H]12` [IPM, imipenem], the MIC is above 32 µg/mL in test [2] (setting [9]), above 32 µg/mL in test [2] (setting [10]), 32 µg/mL (≈ 107 µM) in test [2] (setting [11]) and 3 µg/mL (≈ 10 µM) in test [2] (strain PA 27853).
Regarding `CCN1CCN(C(=O)N[C@@H](C(=O)N[C@@H]2C(=O)N3[C@@H]2SC(C)(C)[C@@H]3C(=O)O)c2ccccc2)C(=O)C1=O` [PIP, piperacillin], the MIC was determined as 3 µg/mL (≈ 5.8 µM) in test [2] (setting [9]), 8 µg/mL (≈ 15.5 µM) in test [2] (setting [10]), 32 µg/mL (≈ 61.8 µM) in test [2] (setting [11]) and 3 µg/mL (≈ 5.8 µM) in test [2] (strain PA 27853).
Regarding `NC[C@H]1O[C@H](O[C@H]2[C@H](O)[C@@H](O[C@H]3O[C@H](CO)[C@@H](O)[C@H](N)[C@H]3O)[C@H](N)C[C@@H]2N)[C@H](N)C[C@@H]1O` [TOB, tobramycin], the cross-resistance entry in test [3] is given as “observed”. Also, the MIC in test [2] (setting [9]), in test [2] (setting [10]), in test [2] (setting [11]) and in test [2] (strain PA 27853) was 0.5 µg/mL (≈ 1.07 µM) throughout.
In test [4], `NCC[C@H](O)C(=O)N[C@@H]1C[C@H](N)[C@@H](O[C@H]2O[C@H](CN)[C@@H](O)[C@H](O)[C@H]2O)[C@H](O)[C@H]1O[C@H]1O[C@H](CO)[C@@H](O)[C@H](N)[C@H]1O` [amikacin] registered an MBC of 8 µg/mL (≈ 13.7 µM) and an MIC of 4 µg/mL (≈ 6.83 µM). For the same molecule, in test [5] (AB BAA 747), the H is listed as 3.06, the Kk worked out at 27.81 h⁻¹, the β is given as 50.09 and the τ came out at 442 µL/min/mg. In addition, the EC50 in test [5] (Acinetobacter baumannii, BAA747, AB BAA 747, read-out: C50k) was determined as 1.56 µg/mL (≈ 2.66 µM). The “concentrations with complete bacterial eradication” value in test [5] (after 2 hours of drug exposure) was above 16 mg/L. The stability of resistance entry in test [3] (resistant isolates from sub-optimal dosing regimens) is recorded as “phenotypically stable”.
With `CO/N=C(\C(=O)N[C@@H]1C(=O)N2C(C(=O)[O-])=C(C[N+]3(C)CCCC3)CS[C@H]12)c1csc(N)n1` [cefepime], the cross-resistance result in test [3] is recorded as “not”.
In the case of `O=C(O)c1cn(C2CC2)c2cc(N3CCNCC3)c(F)cc2c1=O` [ciprofloxacin], the “cross resistance, change in MIC” value in test [6] (levofloxacin resistant isolates) is at least 4 fold.
Consider `C[C@H]1COc2c(N3CCN(C)CC3)c(F)cc3c(=O)c(C(=O)O)cn1c23` [levofloxacin], for which the MIC was found to be 2 Ig/mL in test [7]; 6 µg/mL (≈ 16.6 µM) in test [1]; 0.75 µg/mL (≈ 2.08 µM) in test [2] (setting [9]); 4 µg/mL (≈ 11.1 µM) in test [2] (setting [10]); 0.75 µg/mL (≈ 2.08 µM) in test [2] (strain PA 27853). Further, the EC50 turned out to be 0.86 µg/mL (≈ 2.38 µM) in test [8] (ATCC27853, read-out: C50) and 39.4 µg/mL (≈ 109 µM) in test [8] (ATCC27853, read-out: C50b). Also, the C50A in test [8] (model fit) is 0.45 µg/mL. In test [8] (model fit), this molecule gave an H of 1.7. This molecule also registered an HA in test [8] (model fit) of 10. Further, the Hb in test [8] (model fit) stood at 24. The “increase in MIC compared to the parent strain” value in test [6] (two random isolates from drug supplemented media plates) is on record as 16 fold.
